Target: Bcl-2-related protein A1 (Mus musculus) (UniProt Q07440)
Experiment: small-molecule antagonists of Bfl-1/BH3 interaction – biochemical, TR-FRET, mouse Bfl-1, confirmation (AID 621)
Conditions: TR-FRET Bfl-1 BH3 peptide binding displacement

Sequence of Bcl-2-related protein A1 (Mus musculus) (Q07440 whole entry, looked up): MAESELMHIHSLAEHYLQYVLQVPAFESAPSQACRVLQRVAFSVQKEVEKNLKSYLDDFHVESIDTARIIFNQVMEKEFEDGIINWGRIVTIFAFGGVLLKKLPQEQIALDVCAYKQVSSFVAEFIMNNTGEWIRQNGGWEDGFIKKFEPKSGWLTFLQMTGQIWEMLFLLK

IC50	Compound
3.49 µM	Nc1ccc2ncccc2c1N
14.5 µM	CCn1c(SCC(=O)O)nc2sc3c(c2c1=O)CCC3

Reference: PubChem BioAssay AID621 (Sanford-Burnham Center for Chemical Genomics, 2007)
